Test results as given in patent US10131744B2, “Antimicrobial polyamide compositions and mastitis treatment” (priority 2013, dated 2018).
≈ marks a conversion by molar mass, not a printed value.

Experiments:
[1] = test system: Coagulase negative Staphylococcus species; assay: MIC in broth against coagulase negative Staphylococcus species; type: cell-based
Description: (§1) The antimicrobial efficacy of twenty-five antimicrobial polymers (and Erythromycin) was evaluated using an MIC assay. For each study, a doubling dilution concentration of each antimicrobial polymer was prepared at 2× the final concentration range (0.12 to 16 μg/mL), and 100 μL of the API-null formulation was dispensed into the negative control wells. Overall, the antimicrobial polymer-containing compositions performed comparably well, or better, against the pathogens, as compared to Erythromycin (ERY).

Mannheimia haemolytica = assay: MIC in broth against Mannheimia haemolytica; type: cell-based
Description: as §1

[2] = test system: S. pneumoniae (Str-53) ATCC 49619; conditions: cited from earlier work
Proteus mirabilis = assay: MIC in broth against Proteus mirabilis; type: cell-based
Description: as §1

[3] = test system: S. pneumoniae (Str-53) ATCC 49619; assay: MIC in broth against S. pneumoniae; type: cell-based; conditions: Streptococcus pneumoniae, ATCC49619
Description: The antimicrobial efficacy of twenty-five antimicrobial polymers (and Erythromycin) was evaluated using an MIC assay. […] Overall, the antimicrobial polymer-containing compositions performed comparably well, or better, against the pathogens, as compared to Erythromycin (ERY).

Mycoplasma bovis = assay: organism not typed; type: cell-based
[4] = test system: Staphylococcus pseudintermedius (including MRSP); assay: MIC in broth against Staphylococcus pseudintermedius (including MRSP); type: cell-based; set-up: unit not given beside the values
Description: as §1

Question: What does the source list for `CC[C@H]1OC(=O)[C@H](C)[C@@H](O[C@H]2C[C@@](C)(OC)[C@@H](O)[C@H](C)O2)[C@H](C)[C@@H](O[C@@H]2O[C@H](C)C[C@H](N(C)C)[C@H]2O)[C@](C)(O)C[C@@H](C)C(=O)[C@H](C)[C@@H](O)[C@]1(C)O` [Ery, Erythromycin]?
Answer: MIC ([1]; isolate # 150): 0.25 µg/mL (≈ 0.341 µM); MIC ([1]; isolate # 151): 0.25 µg/mL (≈ 0.341 µM); MIC ([1]; isolate # 152): 0.25 µg/mL (≈ 0.341 µM); MIC ([1]; isolate # 153): 0.5 µg/mL (≈ 0.681 µM); MIC ([1]; isolate # 154): 0.5 µg/mL (≈ 0.681 µM); MIC ([1]; isolate # 155): 0.25 µg/mL (≈ 0.341 µM); MIC ([1]; isolate # 156): 0.25 µg/mL (≈ 0.341 µM); MIC ([1]; isolate # 157): 0.12 µg/mL (≈ 0.164 µM); MIC (Mannheimia haemolytica; isolate # 158): 4 µg/mL (≈ 5.45 µM); MIC (Mannheimia haemolytica; isolate # 159): > 8 µg/mL; MIC (Mannheimia haemolytica; isolate # 160): 4 µg/mL (≈ 5.45 µM); MIC (Mannheimia haemolytica; isolate # 161): > 8 µg/mL; MIC (Mannheimia haemolytica; isolate # 162): 2 µg/mL (≈ 2.73 µM); MIC (Mannheimia haemolytica; isolate # 163): 4 µg/mL (≈ 5.45 µM); MIC (Mannheimia haemolytica; isolate # 164): > 8 µg/mL; MIC (Mannheimia haemolytica; isolate # 165): > 8 µg/mL; MIC (Mannheimia haemolytica; isolate # 166): 1 µg/mL (≈ 1.36 µM); MIC (Mannheimia haemolytica; isolate # 167): 4 µg/mL (≈ 5.45 µM); Known range (MIC) [2]: .03 to .12 µg/mL; MIC (Proteus mirabilis; Proteus mirabilis, isolate # 52): > 8 µg/mL; MIC against Proteus mirabilis (Proteus mirabilis; isolate # 48): >8 µg/mL; MIC against Proteus mirabilis (Proteus mirabilis; isolate # 49): >8 µg/mL; MIC against Proteus mirabilis (Proteus mirabilis; isolate # 50): >8 µg/mL; MIC against Proteus mirabilis (Proteus mirabilis; isolate # 51): >8 µg/mL; MIC against Proteus mirabilis (Proteus mirabilis; isolate # 53): >8 µg/mL; MIC against Proteus mirabilis (Proteus mirabilis; isolate # 54): >8 µg/mL; MIC against Proteus mirabilis (Proteus mirabilis; isolate # 55): >8 µg/mL; MIC against Proteus mirabilis (Proteus mirabilis; isolate # 56): >8 µg/mL; MIC against Proteus mirabilis (Proteus mirabilis; isolate # 57): >8 µg/mL; MIC [3]: 0.06 µg/mL (≈ 0.0818 µM); MIC (Mycoplasma bovis): 4 µg/mL (≈ 5.45 µM); MIC (Mycoplasma bovis; Mycoplasmopsis bovis, isolate # 248 (mastitis), read-out: MIC against Mycoplasma bovis): > 8 µg/mL; MIC (Mycoplasma bovis; Mycoplasmopsis bovis, isolate # 249 (mastitis), read-out: MIC against Mycoplasma bovis): > 8 µg/mL; MIC (Mycoplasma bovis; Mycoplasmopsis bovis, isolate # 250 (mastitis), read-out: MIC against Mycoplasma bovis): > 8 µg/mL; MIC (Mycoplasma bovis; Mycoplasmopsis bovis, isolate # 251 (mastitis), read-out: MIC against Mycoplasma bovis): > 8 µg/mL; MIC (Mycoplasma bovis; Mycoplasmopsis bovis, isolate # 252 (mastitis), read-out: MIC against Mycoplasma bovis): > 8 µg/mL; MIC (Mycoplasma bovis; Mycoplasmopsis bovis, isolate # 253 (mastitis), read-out: MIC against Mycoplasma bovis): 4 µg/mL (≈ 5.45 µM); MIC (Mycoplasma bovis; Mycoplasmopsis bovis, isolate # 254 (mastitis), read-out: MIC against Mycoplasma bovis): > 8 µg/mL; MIC (Mycoplasma bovis; Mycoplasmopsis bovis, isolate # 255 (mastitis), read-out: MIC against Mycoplasma bovis): > 8 µg/mL; MIC (Mycoplasma bovis; Mycoplasmopsis bovis, isolate # 256 (mastitis), read-out: MIC against Mycoplasma bovis): > 8 µg/mL; MIC (Mycoplasma bovis; Mycoplasmopsis bovis, isolate # 257 (mastitis), read-out: MIC against Mycoplasma bovis): > 8 µg/mL; MIC against Staphylococcus pseudintermedius (+ MSRP) ([4]; isolate # 128): 0.25; MIC against Staphylococcus pseudintermedius (+ MSRP) ([4]; isolate # 129): 0.25; MIC against Staphylococcus pseudintermedius (+ MSRP) ([4]; isolate # 130): 0.25; MIC against Staphylococcus pseudintermedius (+ MSRP) ([4]; isolate # 131): 0.25; MIC against Staphylococcus pseudintermedius (+ MSRP) ([4]; isolate # 132): 0.25; MIC against Staphylococcus pseudintermedius (+ MSRP) ([4]; isolate # 133): 0.25; MIC against Staphylococcus pseudintermedius (+ MSRP) ([4]; isolate # 134): 0.25; MIC against Staphylococcus pseudintermedius (+ MSRP) ([4]; isolate # 135): 0.12; MIC against Staphylococcus pseudintermedius (+ MSRP) ([4]; isolate # 136): 0.25; MIC against Staphylococcus pseudintermedius (+ MSRP) ([4]; isolate # 137): 0.12; MIC against Staphylococcus pseudintermedius (+ MSRP) ([4]; isolate # 138): >8; MIC against Staphylococcus pseudintermedius (+ MSRP) ([4]; isolate # 139): 0.25; MIC against Staphylococcus pseudintermedius (+ MSRP) ([4]; isolate # 140): >8; MIC against Staphylococcus pseudintermedius (+ MSRP) ([4]; isolate # 141): >8; MIC against Staphylococcus pseudintermedius (+ MSRP) ([4]; isolate # 142): >8; MIC against Staphylococcus pseudintermedius (+ MSRP) ([4]; isolate # 143): >8; MIC against Staphylococcus pseudintermedius (+ MSRP) ([4]; isolate # 144): >8; MIC against Staphylococcus pseudintermedius (+ MSRP) ([4]; isolate # 145): >8; MIC against Staphylococcus pseudintermedius (+ MSRP) ([4]; isolate # 146): >8; MIC against Staphylococcus pseudintermedius (+ MSRP) ([4]; isolate # 147): >8
